Experimental findings from ChEMBL document CHEMBL1141678 (Eur J Med Chem, 2008) are described below.

Data set [1] addresses T1, Cytochrome P450 2C9 (Homo sapiens, UniProt P11712). Put plainly: Inhibition of human recombinant CYP2C9 in presence of reduced glutathione. The settings on record: recombinant enzyme. It counts as ADME.
The target of data set [2] is T2, Cytochrome P450 2B6 (Homo sapiens, UniProt P20813).
T2 sequence (P20813 whole entry): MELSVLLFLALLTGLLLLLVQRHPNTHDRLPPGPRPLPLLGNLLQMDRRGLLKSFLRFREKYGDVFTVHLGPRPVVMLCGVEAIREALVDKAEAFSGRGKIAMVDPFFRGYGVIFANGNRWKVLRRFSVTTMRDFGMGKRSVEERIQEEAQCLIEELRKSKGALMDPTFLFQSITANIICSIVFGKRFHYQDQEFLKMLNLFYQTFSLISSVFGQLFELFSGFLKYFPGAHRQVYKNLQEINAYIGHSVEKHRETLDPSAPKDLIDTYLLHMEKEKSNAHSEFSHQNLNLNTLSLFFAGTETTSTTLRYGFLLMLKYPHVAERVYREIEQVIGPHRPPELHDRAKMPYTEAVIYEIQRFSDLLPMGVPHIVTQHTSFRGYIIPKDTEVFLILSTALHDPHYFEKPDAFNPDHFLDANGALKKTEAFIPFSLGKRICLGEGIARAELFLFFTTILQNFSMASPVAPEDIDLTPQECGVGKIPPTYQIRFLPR
Description: Inhibition of human recombinant CYP2B6 in presence of reduced glutathione. It counts as ADME. The settings on record: recombinant enzyme.

In data set [3] the target is T3, Cytochrome P450 3A4 (Homo sapiens, UniProt P08684). Put plainly: Inhibition of human recombinant CYP3A4 in presence of reduced glutathione. It counts as ADME. The note with it: recombinant enzyme.
For data set [4], the target named is T4, Cytochrome P450 2D6 (Homo sapiens, UniProt P10635). Put plainly: Inhibition of human recombinant CYP2D6 in presence of reduced glutathione. The settings on record: recombinant enzyme. It counts as ADME.
The target in another data set is T5, Cytochrome P450 1A2 (Homo sapiens, UniProt P05177).
T5 sequence (P05177 whole entry): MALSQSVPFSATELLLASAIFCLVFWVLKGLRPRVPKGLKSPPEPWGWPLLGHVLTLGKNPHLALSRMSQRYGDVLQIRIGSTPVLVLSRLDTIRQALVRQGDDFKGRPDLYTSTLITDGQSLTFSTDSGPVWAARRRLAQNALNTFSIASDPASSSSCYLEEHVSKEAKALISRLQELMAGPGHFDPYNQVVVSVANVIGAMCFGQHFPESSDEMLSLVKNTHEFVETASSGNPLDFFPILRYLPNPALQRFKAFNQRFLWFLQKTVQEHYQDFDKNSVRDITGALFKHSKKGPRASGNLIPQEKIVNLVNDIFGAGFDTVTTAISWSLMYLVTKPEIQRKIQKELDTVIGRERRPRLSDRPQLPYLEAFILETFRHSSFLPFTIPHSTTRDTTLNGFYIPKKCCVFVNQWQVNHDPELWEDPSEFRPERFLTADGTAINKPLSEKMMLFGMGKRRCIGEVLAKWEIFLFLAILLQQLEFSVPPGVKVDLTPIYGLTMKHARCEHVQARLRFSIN
Put plainly: Inhibition of human recombinant CYP1A2. The note with it: for log(1/IC50): human, recombinant CYP1A2.

In data set [5] the target is T4, Cytochrome P450 2D6. Description: Inhibition of human recombinant CYP2D6 at 100 uM. It counts as ADME. The settings on record: recombinant enzyme.
The target of data set [6] is T2, Cytochrome P450 2B6. Description: Inhibition of human recombinant CYP2B6 at 100 uM. In kind it is ADME. The note with it: recombinant enzyme.
For data set [7], the target named is T3, Cytochrome P450 3A4. Put plainly: Inhibition of human recombinant CYP3A4 at 100 uM. In kind it is ADME. The settings on record: recombinant enzyme.
Data set [8] concerns the target T1, Cytochrome P450 2C9. Put plainly: Inhibition of human recombinant CYP2C9. In kind it is ADME.

A word on the IC50: it is the concentration needed to halve the response being measured.

T1 sequence (P11712 whole entry): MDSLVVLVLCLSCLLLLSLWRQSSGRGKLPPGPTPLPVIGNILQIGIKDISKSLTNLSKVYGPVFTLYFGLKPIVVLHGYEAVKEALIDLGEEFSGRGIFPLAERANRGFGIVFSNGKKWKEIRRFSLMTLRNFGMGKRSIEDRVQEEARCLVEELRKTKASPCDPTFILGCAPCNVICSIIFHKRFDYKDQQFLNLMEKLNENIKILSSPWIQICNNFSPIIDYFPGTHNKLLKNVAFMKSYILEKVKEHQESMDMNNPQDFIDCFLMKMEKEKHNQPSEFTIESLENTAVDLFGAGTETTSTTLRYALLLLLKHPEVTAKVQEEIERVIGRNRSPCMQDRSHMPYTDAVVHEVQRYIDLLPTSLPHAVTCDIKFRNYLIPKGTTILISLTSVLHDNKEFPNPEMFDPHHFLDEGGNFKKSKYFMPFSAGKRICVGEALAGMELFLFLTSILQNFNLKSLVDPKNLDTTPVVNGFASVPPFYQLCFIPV
T4 sequence (P10635 whole entry): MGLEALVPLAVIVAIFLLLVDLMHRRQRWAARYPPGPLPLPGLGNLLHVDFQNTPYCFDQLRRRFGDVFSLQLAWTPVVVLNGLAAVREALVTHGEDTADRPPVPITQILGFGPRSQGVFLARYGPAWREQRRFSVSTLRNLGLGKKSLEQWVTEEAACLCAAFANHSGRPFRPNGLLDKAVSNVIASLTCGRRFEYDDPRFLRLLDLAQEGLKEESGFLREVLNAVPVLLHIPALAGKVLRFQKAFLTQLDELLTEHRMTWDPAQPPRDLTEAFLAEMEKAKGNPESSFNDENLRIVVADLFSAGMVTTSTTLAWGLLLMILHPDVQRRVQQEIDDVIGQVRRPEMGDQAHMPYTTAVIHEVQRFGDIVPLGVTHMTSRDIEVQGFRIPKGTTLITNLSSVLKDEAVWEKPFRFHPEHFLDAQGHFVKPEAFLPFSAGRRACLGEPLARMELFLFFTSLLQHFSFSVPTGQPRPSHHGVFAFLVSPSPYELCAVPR
T3 sequence (P08684 whole entry): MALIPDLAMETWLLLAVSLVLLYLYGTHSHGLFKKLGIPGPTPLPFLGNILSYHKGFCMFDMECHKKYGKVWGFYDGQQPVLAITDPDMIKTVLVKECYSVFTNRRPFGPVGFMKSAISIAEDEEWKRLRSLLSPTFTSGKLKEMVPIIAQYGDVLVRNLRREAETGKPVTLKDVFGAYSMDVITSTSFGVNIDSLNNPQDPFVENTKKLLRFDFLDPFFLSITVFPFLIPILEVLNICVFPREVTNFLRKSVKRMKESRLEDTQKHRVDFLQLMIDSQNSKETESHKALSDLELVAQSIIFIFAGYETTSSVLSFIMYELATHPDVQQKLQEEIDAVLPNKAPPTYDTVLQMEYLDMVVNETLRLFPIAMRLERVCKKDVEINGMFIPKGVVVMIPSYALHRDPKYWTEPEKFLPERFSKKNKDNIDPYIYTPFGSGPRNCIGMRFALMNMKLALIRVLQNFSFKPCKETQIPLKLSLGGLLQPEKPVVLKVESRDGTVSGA

As to `O=C1/C(=C/c2ccccc2)CC/C1=C\c1ccccc1`, the Activity result at Cytochrome P450 2C9 [1], on Cytochrome P450 2B6 [2], on Cytochrome P450 3A4 [3] and on Cytochrome P450 2D6 [4] was “Not Active” throughout. Besides, at Cytochrome P450 1A2, the 50% inhibitory concentration (IC50) turned out to be 36.6 µM. Moreover, the “log(1/IC50)” value on Cytochrome P450 1A2 is 1.437.
In the case of `CN(C)c1ccc(/C=C2\CC/C(=C\c3ccc(N(C)C)cc3)C2=O)cc1`, the Activity entry at Cytochrome P450 2C9 [1], on Cytochrome P450 2B6 [2], at Cytochrome P450 3A4 [3] and on Cytochrome P450 2D6 [4] was “Not Active” in each case.
Consider `CN(C)c1ccc(/C=C2\CCC/C(=C\c3ccc(N(C)C)cc3)C2=O)cc1`, for which the Activity entry on Cytochrome P450 2C9 [1], at Cytochrome P450 2B6 [2], at Cytochrome P450 3A4 [3], on Cytochrome P450 2D6 [5], at Cytochrome P450 2B6 [6] and at Cytochrome P450 3A4 [7] was “Not Active” in each case. The Activity result on Cytochrome P450 2D6 [4] was “Not Active”. Also, at Cytochrome P450 1A2, the IC50 worked out at 2.6 µM. Besides, on Cytochrome P450 1A2, the “log(1/IC50)” value stood at 2.585.
On to `O=C(/C=C/c1ccc(Cl)c(Cl)c1)/C=C/c1ccc(Cl)c(Cl)c1`, for which the Activity result on Cytochrome P450 2C9 [1], at Cytochrome P450 2B6 [2], on Cytochrome P450 3A4 [3] and on Cytochrome P450 2D6 [4] was “Not Active” each time.
Take `COc1ccc(/C=C2\CCC/C(=C\c3ccc(OC)cc3)C2=O)cc1`: the Activity entry on Cytochrome P450 2C9 [1], at Cytochrome P450 2B6 [2], on Cytochrome P450 3A4 [3], on Cytochrome P450 2D6 [5], on Cytochrome P450 2B6 [6] and at Cytochrome P450 3A4 [7] was “Not Active” in each case. Also, on Cytochrome P450 2D6 [4], the Activity result was “Not Active”. Also, the IC50 at Cytochrome P450 1A2 came to 11 µM. On Cytochrome P450 1A2, the “log(1/IC50)” value was 1.959.
For the molecule `O=C(/C=C/c1ccc(Cl)cc1)/C=C/c1ccc(Cl)cc1`, the Activity result on Cytochrome P450 2C9 [1], at Cytochrome P450 2B6 [2], at Cytochrome P450 3A4 [3] and on Cytochrome P450 2D6 [4] was “Not Active” in each case. Further, the IC50 at Cytochrome P450 1A2 came out at 26.6 µM. For the same molecule, the “log(1/IC50)” value at Cytochrome P450 1A2 was found to be 1.575.
`Cc1ccc(/C=C/C(=O)/C=C/c2ccc(C)cc2)cc1`: the Activity result on Cytochrome P450 2C9 [1], at Cytochrome P450 2B6 [2], on Cytochrome P450 3A4 [3] and on Cytochrome P450 2D6 [4] was “Not Active” throughout.
On to `O=C1/C(=C/c2ccc(Cl)cc2)CC/C1=C\c1ccc(Cl)cc1`, for which the Activity result on Cytochrome P450 2C9 [1], at Cytochrome P450 2B6 [2], on Cytochrome P450 3A4 [3] and on Cytochrome P450 2D6 [4] was “Not Active” each time.
For `O=C1/C(=C/c2ccc(Cl)c(Cl)c2)CC/C1=C\c1ccc(Cl)c(Cl)c1`, the Activity result at Cytochrome P450 2C9 [1], on Cytochrome P450 2B6 [2], on Cytochrome P450 3A4 [3] and on Cytochrome P450 2D6 [4] was “Not Active” in each case.
For `Cc1cc(/C=C2\CC/C(=C\c3cc(C)c(O)c(C)c3)C2=O)cc(C)c1O`, the Activity result on Cytochrome P450 2C9 [1], at Cytochrome P450 2B6 [2], at Cytochrome P450 3A4 [3] and on Cytochrome P450 2D6 [4] was “Not Active” throughout. Also, the IC50 on Cytochrome P450 2C9 [8] was 28.3 µM.
Take `Cc1cc(/C=C2\CCC/C(=C\c3cc(C)c(O)c(C)c3)C2=O)cc(C)c1O`: the Activity result at Cytochrome P450 2C9 [1], on Cytochrome P450 2B6 [2], at Cytochrome P450 3A4 [3], at Cytochrome P450 2D6 [5], on Cytochrome P450 2B6 [6] and at Cytochrome P450 3A4 [7] was “Not Active” throughout. Also, the Activity entry on Cytochrome P450 2D6 [4] is on record as “Not Active”.
With `O=C(/C=C/c1cccc(Cl)c1)/C=C/c1cccc(Cl)c1`, the Activity result on Cytochrome P450 2C9 [1], at Cytochrome P450 2B6 [2], at Cytochrome P450 3A4 [3] and at Cytochrome P450 2D6 [4] was “Not Active” in each case. For the same molecule, the IC50 came to 21.3 µM at Cytochrome P450 2C9 [8] and 3.4 µM on Cytochrome P450 1A2. Besides, the “log(1/IC50)” value at Cytochrome P450 1A2 is 2.469.
With `O=C1/C(=C/c2ccc(C(F)(F)F)cc2)CCC/C1=C\c1ccc(C(F)(F)F)cc1`, the Activity entry at Cytochrome P450 2C9 [1], at Cytochrome P450 2B6 [2], on Cytochrome P450 3A4 [3], at Cytochrome P450 2D6 [5], on Cytochrome P450 2B6 [6] and at Cytochrome P450 3A4 [7] was “Not Active” each time. For the same molecule, the Activity entry on Cytochrome P450 2D6 [4] is recorded as “Not Active”. Besides, the half-maximal inhibitory concentration (IC50) on Cytochrome P450 1A2 was determined as 10.4 µM. For the same molecule, the “log(1/IC50)” value on Cytochrome P450 1A2 amounted to 1.983.
As to `CC(C)(C)c1ccc(/C=C/C(=O)/C=C/c2ccc(C(C)(C)C)cc2)cc1`, the Activity result on Cytochrome P450 2C9 [1], at Cytochrome P450 2B6 [2], at Cytochrome P450 3A4 [3] and at Cytochrome P450 2D6 [4] was “Not Active” in each case. In addition, the 50% inhibitory concentration (IC50) at Cytochrome P450 1A2 amounted to 28 µM. Moreover, the “log(1/IC50)” value at Cytochrome P450 1A2 was determined as 1.553.
`O=C(/C=C/c1ccc(C(F)(F)F)cc1)/C=C/c1ccc(C(F)(F)F)cc1`: the Activity entry at Cytochrome P450 2C9 [1], on Cytochrome P450 2B6 [2], at Cytochrome P450 3A4 [3] and at Cytochrome P450 2D6 [4] was “Not Active” throughout. In addition, the IC50 at Cytochrome P450 1A2 stood at 4 µM. In addition, the “log(1/IC50)” value at Cytochrome P450 1A2 is reported as 2.398.
As to `O=C1/C(=C/c2ccc(C(F)(F)F)cc2)CC/C1=C\c1ccc(C(F)(F)F)cc1`, the Activity result on Cytochrome P450 2C9 [1], on Cytochrome P450 2B6 [2], on Cytochrome P450 3A4 [3] and at Cytochrome P450 2D6 [4] was “Not Active” throughout.
Turning to `Cc1ccc(/C=C2\CCC/C(=C\c3ccc(C)cc3)C2=O)cc1`, the Activity entry on Cytochrome P450 2C9 [1], at Cytochrome P450 2B6 [2], on Cytochrome P450 3A4 [3], on Cytochrome P450 2D6 [5], at Cytochrome P450 2B6 [6] and on Cytochrome P450 3A4 [7] was “Not Active” in each case. Besides, the Activity entry on Cytochrome P450 2D6 [4] was “Not Active”. Besides, the IC50 on Cytochrome P450 1A2 was 21 µM. For the same molecule, at Cytochrome P450 1A2, the “log(1/IC50)” value is 1.678.
`CC(C)(C)c1cc(/C=C2\CCC/C(=C\c3cc(C(C)(C)C)c(O)c(C(C)(C)C)c3)C2=O)cc(C(C)(C)C)c1O`: the Activity result on Cytochrome P450 2C9 [1], on Cytochrome P450 2B6 [2], on Cytochrome P450 3A4 [3], on Cytochrome P450 2D6 [5], at Cytochrome P450 2B6 [6] and at Cytochrome P450 3A4 [7] was “Not Active” throughout. In addition, the Activity result on Cytochrome P450 2D6 [4] is listed as “Not Active”.
In the case of `O=C1/C(=C/c2cccc(Cl)c2)CCC/C1=C\c1cccc(Cl)c1`, the Activity result at Cytochrome P450 2C9 [1], at Cytochrome P450 2B6 [2], on Cytochrome P450 3A4 [3], at Cytochrome P450 2D6 [5], on Cytochrome P450 2B6 [6] and at Cytochrome P450 3A4 [7] was “Not Active” throughout. For the same molecule, at Cytochrome P450 2D6 [4], the Activity result is on record as “Not Active”. On Cytochrome P450 1A2, the IC50 was 3.4 µM. Besides, the “log(1/IC50)” value on Cytochrome P450 1A2 was found to be 2.469.
Regarding `COc1ccc(/C=C2\CC/C(=C\c3ccc(OC)cc3)C2=O)cc1`, the Activity entry at Cytochrome P450 2C9 [1], at Cytochrome P450 2B6 [2], at Cytochrome P450 3A4 [3] and on Cytochrome P450 2D6 [4] was “Not Active” each time.
Consider `O=C1/C(=C/c2cccc(Cl)c2)CC/C1=C\c1cccc(Cl)c1`, for which the Activity entry at Cytochrome P450 2C9 [1], on Cytochrome P450 2B6 [2], on Cytochrome P450 3A4 [3] and on Cytochrome P450 2D6 [4] was “Not Active” throughout.
Regarding `O=C1/C(=C/c2ccccc2)CCC/C1=C\c1ccccc1` [2,6-DIBENZYLIDENECYCLOHEXANONE], the Activity entry on Cytochrome P450 2C9 [1], at Cytochrome P450 2B6 [2], at Cytochrome P450 3A4 [3], at Cytochrome P450 2D6 [5], on Cytochrome P450 2B6 [6] and at Cytochrome P450 3A4 [7] was “Not Active” in each case. Further, on Cytochrome P450 2D6 [4], the Activity result is given as “Not Active”. Further, on Cytochrome P450 1A2, the IC50 turned out to be 0.9 µM. Further, on Cytochrome P450 1A2, the “log(1/IC50)” value amounted to 3.046.
